# Data reported in patent US20120058133A1, “INHIBITION OF TRNA SYNTHETASES AND THERAPEUTIC APPLICATIONS THEREOF” (President and Fellows of Harvard College, priority 2009, published 2012).
# “Also recorded” adds a separate entry of the source.
# Key:
# [1] = tested on: passive EAE in RAG2-deficient mice; assay: Passive EAE (transfer of PLP-reactive T cells); format: in vivo, mouse; settings: 2 μg HF daily i.p.
# From the text: The ability of systemic HF treatment to block IL-17 expression and associated autoimmune inflammation in vivo was examined using two distinct models of experimental autoimmune encephalomyelitis (EAE). […] The second model, a passive model of EAE induction, is initiated by the transfer of myelin proteolipid protein (PLP)-reactive T cells into lymphopenic hosts.
# Passive EAE was induced by intravenous transfer of purified CD3^+ splenic T cells isolated from PLP TCR transgenic B10.S mice into syngeneic RAG2-deficient mice (3×10^6 cells/mouse) (Waldner et al., J. Clin. Invest. 113(7):990-997, 2004).
# Mice were injected daily with HF (2 μg/mouse) or vehicle control (DMSO) i.p. Clinical signs of EAE were assessed according to the following score: 0, no signs of disease; 1, flaccid tail; 2, weak gait/hind limb paresis; 3, hind limb paralysis; 4, tetraplegia; 5, moribund. Cytokine production during EAE was determined either in peripheral T cells isolated from spleen or lymph nodes of mice prior to disease onset (day 6-10) or in mononuclear cells isolated from the brain and spinal cords of mice with severe disease (clinical score ≧2) between days 15-20. Briefly, splenocytes were stained for intracellular cytokines following erythrocyte lysis with ammonium chloride buffer. T cells were isolated from brain and spinal cords of mice with active EAE following perfusion with cold PBS. […]
# [2] = tested on: GCN2 phosphorylation / AAR pathway; assay: AAR pathway activation in MEFs (GCN2, eIF2a phosphorylation, CHOP); format: cell-based, mouse
# Description: FIG. 24. Activation of the AAR in cells by HF/FF occurs through inhibition of proline utilization. FIG. 24A is a gel showing HF-induction of the AAR pathway is reversed by proline. MEFs were treated with the indicated concentration of HF or FF in the presence or absence of 2 mM Proline for 2 hours (left) or treated with 1 μM borrelidin in the presence or absence of 2 mM Threonine for 2 hours (right). Cells were lysed and assessed by anti-pGCN2 or anti-GCN2 Western blot. Data are representative of three separate experiments.
# FIG. 24B is a gel showing HF induction of eIF2a phosphorylation and CHOP expression is GCN2 dependent. Wild Type or GCN2−/− MEFs were treated with 50 nM HF in the presence or absence of 2 mM proline. Cells were lysed at 2 hours post-HF addition (peIF2a) or 6 hours post-HF addition (CHOP) and analyzed for phosphoprotein or total protein levels by Western blot.
# MEFs = assay: Total protein synthesis and metabolic activity (Alamar blue) of fibroblasts; format: cell-based, mouse
# Description: FIG. 26D. HF-inhibition of collagen production is rescued by proline and doesn't affect overall protein synthesis. Cells were pre-incubated with HF with or without proline for 4 hours, and ^35S-methionine and HF with or without proline was added. 24 hours later, conditioned medium and total cell lysate was harvested. New production of Type I procollagen was measured in conditioned medium by Western blot, and bands quantitated using Image J quantitation software. The original blot is shown in FIG. 27; total protein synthesis was measured as TCA-precipitable ^35S in a scintillation counter. Error bars reflect standard deviation of triplicate determinations.
# FIG. 29. HF effect on cellular metabolic activity. MEFs were incubated at indicated dose of HF with or without 2 mM proline for 24 hours and tested for metabolic activity using an Alamar blue assay (Invitrogen).
# TGFβ signaling [3] = settings: literature reports; cited from earlier work
# TGFβ signaling [4] = assay: Lymphocyte responses to TGFβ (Smad phosphorylation and others); format: cell-based, mouse; settings: low dose HF; 10 μM SB-431542
# Description: FIG. 8. […] FIG. 8A is a set of FACS analyses of CD4^+ CD25^− T cells activated in Th1 or Th2 polarizing conditions, either in the presence or absence of TGFβ. DMSO, 10 nM HF, 10 nM MAZ1310, or 10 μM SB-431542 added as indicated at the time of activation. Intracellular cytokine staining was performed on expanded T cells on day 5.
# FIG. 8B is a set of FACS analyses of CD8^+ T cells activated in the presence or absence of TGFβ and cultured with DMSO, 10 nM HF, 10 nM MAZ1310, or 10 μM SB-431542. Expanded cells were restimulated on day 5 and intracellular staining was performed.
# FIG. 8C is a set of FACS analyses of CFSE-labeled B cells activated by LPS stimulation in the presence or absence of TGFβ plus DMSO, 10 nM HF, 10 nM MAZ1310, or 10 μM SB-431542. Intracellular IL-6 production in B cells restimulated with PMA plus ionomycin, or cell-surface IgA expression was determined 4 days after activation.
# FIG. 8D depicts western blot analyses of purified CD4^+ CD25^− T cells treated with DMSO, 40 nM MAZ1310, titrating concentrations of HF (2.5-40 nM) or 10 μM SB-431542 for 30 minutes in complete medium supplemented with 0.1% fetal calf serum. T cells were then activated in the presence or absence of 3 ng/ml TGFβ. Whole cell extracts were prepared after 1 hour of stimulation and western blot analyses were performed using the indicated antibodies. […]
smiles,measurement,setting,value
"O=C(CC1NCCCC1O)Cn1cnc2cc(Br)c(Cl)cc2c1=O (racemic) [HF, halofuginone]",disease in passive EAE model,[1],"kinetics and severity similar to control treated animals; also recorded: had no effect on an independent, passive model of EAE"
same,eIF2-alpha phosphorylation and CHOP induction in wild type vs GCN2−/− fibroblasts,[2]; 50 nM HF,absent in GCN2−/− fibroblasts
same,reversal of GCN2 phosphorylation by cognate amino acid,[2]; 2 mM proline or 2 mM threonine,abrogated by the addition of 2 mM proline
same,GCN2 phosphorylation in fibroblasts,"[2]; 2 hours, borrelidin 1 μM",Stimulation of GCN2 phosphorylation
same,total metabolic activity of fibroblasts,MEFs,unaffected
same,35S-methionine incorporation into total protein,"MEFs; doses inhibiting ECM proteins, 24 hours",did not significantly change
same,concentration at which HF can attenuate TGFβ signaling,TGFβ signaling [3],> 50 nM
same,TGFβ-induced Smad phosphorylation and other lymphocyte responses to TGFβ,TGFβ signaling [4],inhibited neither
